Data set [1] is described as follows: Toxicity test of oral gavage administration in SD rats, 28 consecutive days. Type of data set: in vivo. The note with it: for AUC: NOAEL 10 mg/kg/time BID, 28-day test; for Safety window, exposure method: NOAEL 28-day test. How it is done:
(§1) According to the general toxicology study in accordance with the NMPA “Good Laboratory Practice for Non-clinical Laboratory Studies” and FDA GLP specification (21CFR Part 58), and in line with the requirements of International Conference on Harmonization of Technical Requirements for Registration of Pharmaceuticals for Human Use (ICH) and the NMPA relevant guidelines, the toxicology study on Compound (I) was carried out to provide safety data support for the use of Compound (I) in clinical patients. The administration mode and the experimental results were as follows: […]

Data set [2] in a line: Effect on central nervous, respiratory and cardiovascular system of animals. Type of data set: in vivo. How it is done:
as §1

The target in another data set is SYK (Homo sapiens, UniProt P43405). Put plainly: Kinase activity inhibition test (Mobility Shift Assay). The note with it: 2 μM ATP. Type of data set: biochemical. How it is done: (§2) • 1. kinases: SYK, JAK1, JAK2, JAK3 and TYK2 • 2. test method
(§3) Protein kinase activity was determined by Mobility Shift Assay. Compound (I) was dissolved in DMSO and prepared into concentration gradients in 100% DMSO. By the dilution with the kinase buffer, 5 μL of Compound (I) (10% DMSO) was added to a 384-well plate at 5 folds of the final reaction concentration. 10 μL of 2.5-fold enzyme solution was added and the incubation was performed at room temperature for 10 min, followed by the addition of 10 μL of 2.5-fold substrate solution. The incubation was performed at 28° C. for 60 min and […] of stop solution was added to the 384-well reaction plate to terminate the reaction (100 mM HEPES, pH 7.5, 0.015% Brij-35, 0.2% Coating Reagent #3, 50 mM EDTA). The conversion data was copied from the Caliper EZ Reader, and converted into the inhibition data, % inhibition=(max-conversion)/(max-min)×100%, wherein, “min” is the conversion for the control sample well where the reaction was performed without adding the enzyme; and “max” is the conversion for the control well where DMSO was added. The curve was drawn with the compound concentration and the inhibition rate as the horizontal and vertical is coordinates, and the IC50 value was calculated by fitting with XLFit excel add-in version 5.4.0.8. Fitting equation:
(§4) Y=Bottom+(Top-Bottom)/(1+(IC50/X)^HillSlope).

A further data set addresses TYK2 (Homo sapiens, UniProt P29597). Described as above. Type of data set: biochemical. The note with it: 16 μM ATP. How it is done: as §2, §3, §4
For a further data set, the target named is T1, JAK3 (Homo sapiens, UniProt P52333).
T1 sequence (P52333 1-1124): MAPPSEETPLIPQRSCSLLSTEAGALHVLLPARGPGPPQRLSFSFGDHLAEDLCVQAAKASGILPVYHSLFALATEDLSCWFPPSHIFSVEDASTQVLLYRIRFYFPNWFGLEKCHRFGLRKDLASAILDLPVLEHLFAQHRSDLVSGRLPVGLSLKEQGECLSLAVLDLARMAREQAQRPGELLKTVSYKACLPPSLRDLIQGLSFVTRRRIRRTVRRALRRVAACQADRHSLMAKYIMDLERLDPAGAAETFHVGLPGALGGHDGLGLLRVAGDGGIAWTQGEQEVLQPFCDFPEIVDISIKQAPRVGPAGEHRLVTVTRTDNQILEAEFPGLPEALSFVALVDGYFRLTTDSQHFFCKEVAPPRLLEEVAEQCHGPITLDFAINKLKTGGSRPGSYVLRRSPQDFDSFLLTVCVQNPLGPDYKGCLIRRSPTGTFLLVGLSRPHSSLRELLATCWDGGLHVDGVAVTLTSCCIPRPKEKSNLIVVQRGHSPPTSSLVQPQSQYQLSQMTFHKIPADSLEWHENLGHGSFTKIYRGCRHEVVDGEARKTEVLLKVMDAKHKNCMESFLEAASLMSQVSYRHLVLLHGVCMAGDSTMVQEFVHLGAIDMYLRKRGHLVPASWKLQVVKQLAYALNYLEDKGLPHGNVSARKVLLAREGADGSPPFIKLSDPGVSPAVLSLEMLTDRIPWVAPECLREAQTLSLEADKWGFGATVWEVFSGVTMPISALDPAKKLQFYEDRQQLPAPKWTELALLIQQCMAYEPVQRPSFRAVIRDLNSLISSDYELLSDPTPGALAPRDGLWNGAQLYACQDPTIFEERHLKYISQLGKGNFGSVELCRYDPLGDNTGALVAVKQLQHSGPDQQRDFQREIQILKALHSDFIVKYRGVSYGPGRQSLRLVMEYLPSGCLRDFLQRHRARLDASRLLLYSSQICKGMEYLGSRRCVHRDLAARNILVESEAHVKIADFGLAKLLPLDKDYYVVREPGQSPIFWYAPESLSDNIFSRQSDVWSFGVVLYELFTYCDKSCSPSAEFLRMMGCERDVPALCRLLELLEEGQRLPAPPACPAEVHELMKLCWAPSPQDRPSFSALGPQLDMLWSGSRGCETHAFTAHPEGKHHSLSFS
The description is as above. The note with it: 4.3 μM ATP. The class given is biochemical. How it is done: as §2, §3, §4

The target of another data set is JAK2 (Homo sapiens, UniProt O60674). Described as above. Type of data set: biochemical. The note with it: 6.5 μM ATP. As to the method:
as §2, §3, §4

A further data set concerns the target JAK1 (Homo sapiens, UniProt P23458). The description is as above. Type of data set: biochemical. The note with it: 66 μM ATP. How it is done:
as §2, §3, §4

A short description of another data set: in vivo. Further details: species or system SD rats. The note with it: SD, rat, po. How it is done: as §1

TYK2, sequence (P29597 whole entry, species assumed): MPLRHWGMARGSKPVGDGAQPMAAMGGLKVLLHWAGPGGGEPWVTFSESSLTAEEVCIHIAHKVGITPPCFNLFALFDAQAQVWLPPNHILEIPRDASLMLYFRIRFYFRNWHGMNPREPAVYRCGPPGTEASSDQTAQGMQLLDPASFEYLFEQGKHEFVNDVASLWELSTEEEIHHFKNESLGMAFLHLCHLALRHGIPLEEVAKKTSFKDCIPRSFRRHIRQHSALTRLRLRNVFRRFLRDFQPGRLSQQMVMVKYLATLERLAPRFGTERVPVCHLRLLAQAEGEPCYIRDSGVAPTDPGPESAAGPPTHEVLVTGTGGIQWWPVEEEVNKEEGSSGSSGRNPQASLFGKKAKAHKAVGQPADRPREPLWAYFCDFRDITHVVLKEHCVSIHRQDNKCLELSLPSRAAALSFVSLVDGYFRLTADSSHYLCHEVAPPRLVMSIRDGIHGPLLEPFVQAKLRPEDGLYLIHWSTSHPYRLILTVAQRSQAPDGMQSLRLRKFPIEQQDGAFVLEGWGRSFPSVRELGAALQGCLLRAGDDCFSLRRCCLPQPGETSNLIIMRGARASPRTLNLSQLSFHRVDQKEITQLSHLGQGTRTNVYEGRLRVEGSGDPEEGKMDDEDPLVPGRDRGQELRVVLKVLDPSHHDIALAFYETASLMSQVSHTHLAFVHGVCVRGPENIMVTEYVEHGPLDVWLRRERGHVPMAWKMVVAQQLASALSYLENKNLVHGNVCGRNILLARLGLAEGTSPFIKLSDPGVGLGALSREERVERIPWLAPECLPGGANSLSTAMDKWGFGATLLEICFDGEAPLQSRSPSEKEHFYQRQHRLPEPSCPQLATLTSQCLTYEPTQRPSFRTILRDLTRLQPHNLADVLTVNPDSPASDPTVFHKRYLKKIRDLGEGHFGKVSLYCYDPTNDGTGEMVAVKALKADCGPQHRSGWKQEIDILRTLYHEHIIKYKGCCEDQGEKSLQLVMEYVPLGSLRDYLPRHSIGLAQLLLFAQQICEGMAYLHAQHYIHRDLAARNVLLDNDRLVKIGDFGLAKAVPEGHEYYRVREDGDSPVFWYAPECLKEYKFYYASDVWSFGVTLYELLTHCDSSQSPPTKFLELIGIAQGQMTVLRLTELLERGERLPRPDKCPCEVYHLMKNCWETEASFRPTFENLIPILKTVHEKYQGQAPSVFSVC
JAK2, sequence (O60674 whole entry, species assumed): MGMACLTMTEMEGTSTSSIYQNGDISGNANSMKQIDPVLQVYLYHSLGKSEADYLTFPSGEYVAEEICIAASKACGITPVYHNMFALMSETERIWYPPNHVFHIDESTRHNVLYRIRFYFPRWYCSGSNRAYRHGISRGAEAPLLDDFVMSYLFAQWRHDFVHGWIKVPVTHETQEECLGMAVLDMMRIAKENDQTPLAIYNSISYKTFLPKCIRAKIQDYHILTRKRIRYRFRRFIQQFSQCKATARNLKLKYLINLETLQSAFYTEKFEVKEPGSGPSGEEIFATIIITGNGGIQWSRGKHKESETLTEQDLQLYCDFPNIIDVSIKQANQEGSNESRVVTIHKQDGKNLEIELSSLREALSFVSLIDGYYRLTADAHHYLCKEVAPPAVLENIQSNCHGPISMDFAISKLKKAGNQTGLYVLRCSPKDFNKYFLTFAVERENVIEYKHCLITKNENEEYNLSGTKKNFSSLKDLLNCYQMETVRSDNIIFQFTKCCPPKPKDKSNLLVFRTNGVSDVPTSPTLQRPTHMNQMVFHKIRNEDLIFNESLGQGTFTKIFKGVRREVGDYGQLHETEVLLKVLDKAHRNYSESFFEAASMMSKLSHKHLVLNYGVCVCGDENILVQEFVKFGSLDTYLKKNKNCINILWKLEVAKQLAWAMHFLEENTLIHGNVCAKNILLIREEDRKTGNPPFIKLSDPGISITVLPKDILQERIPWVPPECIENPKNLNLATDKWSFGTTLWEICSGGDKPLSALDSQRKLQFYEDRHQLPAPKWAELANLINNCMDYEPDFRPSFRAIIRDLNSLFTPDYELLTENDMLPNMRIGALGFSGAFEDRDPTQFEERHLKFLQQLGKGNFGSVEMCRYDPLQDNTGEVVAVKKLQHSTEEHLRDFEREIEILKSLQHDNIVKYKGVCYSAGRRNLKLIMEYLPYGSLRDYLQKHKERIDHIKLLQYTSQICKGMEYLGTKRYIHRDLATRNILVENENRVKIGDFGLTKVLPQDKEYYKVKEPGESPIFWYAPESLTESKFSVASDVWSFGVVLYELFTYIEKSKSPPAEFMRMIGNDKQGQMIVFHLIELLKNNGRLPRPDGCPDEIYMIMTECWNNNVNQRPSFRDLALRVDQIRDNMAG
JAK1, sequence (P23458 whole entry, species assumed): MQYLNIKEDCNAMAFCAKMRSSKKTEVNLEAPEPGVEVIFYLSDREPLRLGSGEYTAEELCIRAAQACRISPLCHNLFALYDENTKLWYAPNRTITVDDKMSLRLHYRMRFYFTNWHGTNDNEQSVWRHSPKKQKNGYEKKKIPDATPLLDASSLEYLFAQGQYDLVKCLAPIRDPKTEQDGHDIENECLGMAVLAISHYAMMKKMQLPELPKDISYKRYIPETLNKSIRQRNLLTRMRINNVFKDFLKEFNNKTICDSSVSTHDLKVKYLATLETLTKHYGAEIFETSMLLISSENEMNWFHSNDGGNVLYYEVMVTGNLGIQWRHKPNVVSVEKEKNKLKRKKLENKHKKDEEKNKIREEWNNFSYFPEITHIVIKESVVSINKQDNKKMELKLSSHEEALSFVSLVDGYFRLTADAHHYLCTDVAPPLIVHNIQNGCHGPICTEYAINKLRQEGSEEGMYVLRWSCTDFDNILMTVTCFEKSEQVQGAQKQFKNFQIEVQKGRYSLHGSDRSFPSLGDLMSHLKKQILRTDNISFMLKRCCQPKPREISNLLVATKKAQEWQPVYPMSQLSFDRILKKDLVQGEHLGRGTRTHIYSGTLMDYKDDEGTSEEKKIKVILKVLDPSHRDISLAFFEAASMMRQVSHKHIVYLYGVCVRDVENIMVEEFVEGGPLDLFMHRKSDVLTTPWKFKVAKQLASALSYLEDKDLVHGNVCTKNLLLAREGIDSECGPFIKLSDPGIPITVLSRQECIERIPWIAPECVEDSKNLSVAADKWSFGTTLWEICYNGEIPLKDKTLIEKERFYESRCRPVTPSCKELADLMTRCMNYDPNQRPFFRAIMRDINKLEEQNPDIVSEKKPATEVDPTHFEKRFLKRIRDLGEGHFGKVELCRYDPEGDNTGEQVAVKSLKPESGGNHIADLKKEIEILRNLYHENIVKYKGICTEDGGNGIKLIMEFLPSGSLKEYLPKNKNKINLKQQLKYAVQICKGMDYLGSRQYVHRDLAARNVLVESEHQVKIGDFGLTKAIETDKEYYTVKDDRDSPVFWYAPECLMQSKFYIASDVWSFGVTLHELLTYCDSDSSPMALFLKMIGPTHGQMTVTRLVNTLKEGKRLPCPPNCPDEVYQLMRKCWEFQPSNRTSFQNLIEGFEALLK

With `NC(=O)c1cnc(Nc2ccc3c(c2)OC[C@H]2CN(S(=O)(=O)C4CC4)CCN32)nc1NC1CC1` [Compound (I), (R)-4-(cyclopropylamino)-2-((3-(cyclopropylsulfonyl)-1,2,3,4,4a,5-hexahydrobenzo[b]pyrazolo[1,2-d][1,4]oxazin-8-yl)amino)pyrimidine-5-arboxamide], the “Safety window, according to the exposure” value in [1] (SD rats, both sexes, NOAEL 28-day test vs rat effective dose exposure) was 8-13 fold. For the same molecule, the “Safety window, dose method” value in data set [1] (SD rats, NOAEL 28-day test vs rat effective dose) was determined as 3 fold. Further, in data set [1] (SD, rat, in vivo, 28 days), the “Safety window of human equivalent dose of NOAEL relative to the human initial dose” value is listed as 16 fold. In addition, the NOAEL at 28 days in data set [1] (SD, rat, in vivo, po) amounted to 20 mg/kg/day. The AUC in data set [1] (female, SD, rat, in vivo, po, rats ♀) was found to be 58100 ng·h/mL; in data set [1] (male, SD, rat, in vivo, po, rats ♂), 33900 ng·h/mL. For the same molecule, the “Human equivalent dose (based on 60 kg body weight)” value in data set [1] (of NOAEL for 28-day test of rats) is 242 mg. Moreover, the “NOAEL of repeated administration for 28 days” value in data set [1] (rat, in vivo, po) is recorded as 10 mg/kg/time. For the same molecule, the “Safety window, exposure method” value was “♀13 fold” in data set [1] (rats ♀) and “♂8 fold” in data set [1] (rats ♂). Moreover, in data set [2], the “Effect on the central nervous system, respiratory system and cardiovascular system” value is recorded as “no effect”. The Genotoxicity entry in “Genotoxicity” is given as “no genotoxicity”. The IC50 on SYK came to 7.25 nM; at TYK2, 0.82 nM; at JAK3, 1.43 nM; at JAK2, 3.92 nM; on JAK1, 20 nM. The NOAEL in the data set “in vivo” turned out to be 2000 mg/kg.

Values taken from patent US20240165123A1, “USE OF A COMPOUND CONTAINING A TRICYCLIC HETEROARYL GROUP” (CSPC Zhongqi Pharmaceutical Technology (Shijiazhuang) Co., …, priority 2021, published 2024).
